Assay results reported in patent US7008649B2, “Cancer treatment composition and method using natural plant essential oils with signal transduction modulators” (Ecosmart Techonlogies, Inc., priority 1998, dated 2006).

How the values were obtained:
Format in all cases: cell-based, human
MCF-7 cells [1] = assay: Plant essential oil compounds against E2-induced cell growth, viable cell count (trypan blue, haemocytometer); conditions: 10 nM estrogen, 5 days of treatment; for protection against E2-induced abnormal cell growth: 1 ug/ml
Method: Various concentrations of plant essential oil compounds were tested against E2-induced cell growth to determine the lowest concentrations that antagonize the E2-induced cell growth. MCF-7 cells were cultured in growth medium supplemented with 10% fetal bovine serum (FBS). At 85% confluence, cells were sub-cultured in 6 well petri-dishes and supplemented with 5% FBS serum stripped medium, phenol red free for 24 hours prior to the treatment of different concentrations of the test chemicals. After 5 days of treatment cells were trypsinized and collected using an Eppendorf microcentrifuge. The cell pellets were resuspended in 1% trypan blue. Three aliquots (10 ul each) of the viable cell suspension was counted using a haemocytometer assay. Each sample was then counted three times and to obtain an average count. The compounds were tested in the presence of 10 nM estrogen (=2.7 ng estrogen/ml). Two wells per test concentration were used. This experiment was repeated two times. A control sample-received solvent only at <0.1% ethanol.

MCF-7 cells [2] = assay: Mixed exposure of plant essential oil compounds and forskolin (FK) on E2-induced breast cancer cell growth (FIG. 3); conditions: mixed exposure with forskolin (FK), 10 nM estrogen
Method: (§1) MCF-7 cells were cultured in growth medium supplemented with 10% fetal bovine serum (FBS). At 85% confluence, cells were sub-cultured in 6 well petri-dishes medium supplemented with 5% FBS serum stripped medium, phenol red free for 24 hours prior to the treatment of different concentrations of the test chemicals. Cells were either counted (5 days after treatment) or used to determine cell proliferation (24 hr after treatment) using ^3H-thymidine incorporation. To count the cell, cells were trypsinized, and collected using Eppendorf microcentrifuge. The cell pellets were resuspended in 1% trypan blue and three aliquots (10 ul each) of the viable cell suspension was counted using a haemocytometer assay. Each sample was then counted three times to obtain an average count. For thymidine incoroporation, 24 hr after cell treated with test mixture, cells were incubated with 1 uCi ^3H-thymidine. After 2 hr, the medium was withdrawn and the cells were washed with thymidine-free medium and 10% TCA prior to radioactive count. Plant essential oil compounds were tested in the presence of 10 nM estrogen (=2.7 ng estrogen/ml) using three wells per test concentration. This experiment was repeated two times. A control sample received solvent only at <0.1% ethanol. The data supports the involvement of cellular signaling proteins, particularly cAMP/PKA cascade in the E2-induced cell proliferation in human breast cancer cells as judged by the antiestrogenic activity of FK. However, different methods are required to evaluate antiestrogenic activity.

MCF-7 cells [3] = assay: Effect of geldanamycin (GM) on antiestrogenic activity of plant essential oil compounds against E2-induced cell growth (FIG. 4); conditions: mixed exposure with geldanamycin (GM), 10 nM estrogen
Method: as §1, with “The data supports the involvement of cellular signaling proteins, particularly cAMP/PKA cascade in the E2-induced cell proliferation in human breast cancer cells as judged by the antiestrogenic activity of FK. However, different methods are required to evaluate antiestrogenic activity.” left out

MCF-7 cells [4] = assay: Mixed exposure of okadaic acid (OA) and plant essential oil compounds, 3H-thymidine incorporation (FIG. 5); conditions: 10 ug/ml plant essential oil compound + 1 nM okadaic acid, 24 hr, with or without 10 nM E2
Method: MCF-7 cells were cultured in growth medium supplemented with 10% fetal bovine serum (FBS). At 85% confluence, cells were sub-cultured in 6 well petri-dishes medium supplemented with 5% FBS serum stripped medium, phenol red free for 24 hours prior to the treatment of 10 ug/ml of each plant essential oil compound and 1 nM okadiac acid. After 24 hr treatment, cells were used to determine cell proliferation using ^3H-thymidine incorporation. Two hrs after cell incubation with 1 uCi ^3H-thymidine, the medium was withdrawn and the cells were washed with thymidine-free medium and 10% TCA prior to radioactive count. These test chemicals were tested in the presence of 10 nM estrogen (=2.7 ng estrogen/ml). Three wells per test concentration were used. This experiment was repeated two times. A control sample received solvent only at <0.1% ethanol.

Row | SMILES | protection against the E2-induced abnormal cell growth (MCF-7 cells [1]; 10 μg/ml) | synergism by FK of the antiestrogenic activity of the plant essential oil compound (MCF-7 cells [2]) | protection against E2-induced abnormal cell growth (MCF-7 cells [1]) | synergism by GM of the antiestrogenic activity against E2 induced cell growth (MCF-7 cells [3]) | synergism by OA of the antiestrogenic activity of the plant essential oil compound (MCF-7 cells [4]) | protection against the E2-induced abnormal cell growth (MCF-7 cells [1]; concentration not given) | protection against the E2-induced cell proliferation (MCF-7 cells [1]; 5 ug/ml)
1 | O=C/C=C/c1ccccc1 [Cinnamic aldehyde] | approximately 75% | synergizes |  |  |  |  | 
2 | C=CCc1ccc(O)c(OC)c1 [eugenol] |  | synergizes | 35% | synergizes | regardless of the absence or presence of E2 |  | 
3 | CC=Cc1ccc(O)c(OC)c1 [isoeugenol] |  | not | 25% |  |  | approximately 75% | 
4 | Cc1ccc(C(C)C)c(O)c1 [thymol] |  | not |  |  | only in the absence of E2 |  | 40%
